Values after ≈ are worked out from the molar mass of the structure shown. Non-standard residues stand in square brackets, D forms with d. Residues, ends and D or L forms follow the SMILES beside them. Bip = N[C@@H](Cc1ccc(-c2ccccc2)cc1)C(=O)O; pY = N[C@@H](Cc1ccc(OP(=O)(O)O)cc1)C(=O)O; pT = C[C@@H](OP(=O)(O)O)[C@H](N)C(=O)O; 2Nal = N[C@@H](Cc1ccc2ccccc2c1)C(=O)O
Tests used:
[1] = tested on: Staphylococcus aureus; test: Antibacterial activity against methicillin resistant Staphylococcus aureus ATCC 33591 incubated for 18 to 24 hrs by broth microdilution method; type: functional; details: time 18-24 hrs
[2] = tested on: Staphylococcus aureus; test: Antibacterial activity against methicillin resistant Staphylococcus aureus 48 incubated for 18 to 24 hrs by broth microdilution method; type: functional; details: time 18-24 hrs
[3] = tested on: Staphylococcus aureus; test: Antibacterial activity against Staphylococcus aureus 794 incubated for 18 to 24 hrs by broth microdilution method; type: functional; details: time 18-24 hrs
[4] = tested on: Escherichia coli; test: Antibacterial activity against Escherichia coli 780 incubated for 18 to 24 hrs by broth microdilution method; type: functional; details: time 18-24 hrs
[5] = tested on: Escherichia coli; test: Antibacterial activity against Escherichia coli 850 incubated for 18 to 24 hrs by broth microdilution method; type: functional; details: time 18-24 hrs
[6] = tested on: Pseudomonas aeruginosa; test: Antibacterial activity against Pseudomonas aeruginosa 119 incubated for 18 to 24 hrs by broth microdilution method; type: functional; details: time 18-24 hrs
[7] = tested on: Staphylococcus aureus; test: Antibacterial activity against Staphylococcus aureus ATCC 25923 incubated for 18 to 24 hrs by broth microdilution method; type: functional; details: time 18-24 hrs
[8] = tested on: Bacillus subtilis; test: Antibacterial activity against Bacillus subtilis ATCC 23857 incubated for 18 to 24 hrs by broth microdilution method; type: functional; details: time 18-24 hrs
[9] = tested on: Escherichia coli; test: Antibacterial activity against Escherichia coli ATCC 25922 incubated for 18 to 24 hrs by broth microdilution method; type: functional; details: time 18-24 hrs
[10] = tested on: Pseudomonas aeruginosa; test: Antibacterial activity against Pseudomonas aeruginosa ATCC 27853 incubated for 18 to 24 hrs by broth microdilution method; type: functional; details: time 18-24 hrs
[11] = tested on: Klebsiella pneumoniae; test: Antibacterial activity against Klebsiella pneumoniae ATCC 700603 incubated for 18 to 24 hrs by broth microdilution method; type: functional; details: time 18-24 hrs
[12] = tested on: Acinetobacter baumannii; test: Antibacterial activity against Acinetobacter baumannii ATCC 19606 incubated for 18 to 24 hrs by broth microdilution method; type: functional; details: time 18-24 hrs
[13] = Hemolytic activity in mouse erythrocyte incubated for 1 hr by microplate reader assay; type: toxicity, cell-based
[14] = Cytotoxicity against HEK293T cells incubated for 1 hr by fluorescence based microplate reader assay; type: toxicity, cell-based, HEK-293T; details: human

Row | Compound | MIC [1] [µM] | MIC [2] [µM] | MIC [3] [µM] | MIC [4] [µM] | MIC [5] [µM] | MIC [6] [µM] | MIC [7] [µM] | MIC [8] [µM] | MIC [9] [µM] | MIC [10] [µM] | MIC [11] [µM] | MIC [12] [µM] | MHC [13] [µM] | CC50 at 1 h [14] [µM]
1 | H-GLLKRWKYLL-NH2 | 32 | 32 | 16 | 8 | 16 | 16 | 64 | 4 | 16 | 8 | 64 | 64 | > 256 | > 128
2 | CC(C)C[C@H](NC(=O)[C@H](CC(C)C)NC(=O)[C@@H](NC(=O)[C@H](CCCCN)NC(=O)[C@H](CC(C)C)NC(=O)[C@H](CCCNC(=N)N)NC(=O)[C@H](CCCCN)NC(=O)[C@H](Cc1ccc2ccccc2c1)NC(=O)[C@H](CC(C)C)NC(=O)CN)[C@@H](C)O)C(N)=O (H-GL[2Nal]KRLKTLL-NH2) | 8 (≈ 9.9 µg/mL) | 8 (≈ 9.9 µg/mL) | 8 (≈ 9.9 µg/mL) | 8 (≈ 9.9 µg/mL) | 8 (≈ 9.9 µg/mL) | 8 (≈ 9.9 µg/mL) | 8 (≈ 9.9 µg/mL) | 8 (≈ 9.9 µg/mL) | 8 (≈ 9.9 µg/mL) | 8 (≈ 9.9 µg/mL) | 8 (≈ 9.9 µg/mL) | 8 (≈ 9.9 µg/mL) | 154.3 | 111
3 | CC(C)C[C@H](NC(=O)[C@H](CC(C)C)NC(=O)[C@@H](NC(=O)[C@H](CCCCN)NC(=O)[C@H](Cc1ccc(-c2ccccc2)cc1)NC(=O)[C@H](CCCNC(=N)N)NC(=O)[C@H](CCCCN)NC(=O)[C@H](CC(C)C)NC(=O)[C@H](CC(C)C)NC(=O)CN)[C@@H](C)OP(=O)(O)O)C(N)=O (H-GLLKR[Bip]K[pT]LL-NH2) | 128 (≈ 172 µg/mL) | 128 (≈ 172 µg/mL) | 32 (≈ 43 µg/mL) | 32 (≈ 43 µg/mL) | 64 (≈ 86 µg/mL) | 128 (≈ 172 µg/mL) | 128 (≈ 172 µg/mL) | 32 (≈ 43 µg/mL) | 64 (≈ 86 µg/mL) | 64 (≈ 86 µg/mL) | 128 (≈ 172 µg/mL) | 64 (≈ 86 µg/mL) | > 256 | 131
4 | CC(C)C[C@H](NC(=O)[C@H](CC(C)C)NC(=O)[C@@H](NC(=O)[C@H](CCCCN)NC(=O)[C@H](CC(C)C)NC(=O)[C@H](CCCNC(=N)N)NC(=O)[C@H](CCCCN)NC(=O)[C@H](Cc1ccc(-c2ccccc2)cc1)NC(=O)[C@H](CC(C)C)NC(=O)CN)[C@@H](C)OP(=O)(O)O)C(N)=O (H-GL[Bip]KRLK[pT]LL-NH2) | 54 (≈ 72.6 µg/mL) | 32 (≈ 43 µg/mL) | 16 (≈ 21.5 µg/mL) | 16 (≈ 21.5 µg/mL) | 32 (≈ 43 µg/mL) | 32 (≈ 43 µg/mL) | 64 (≈ 86 µg/mL) | 16 (≈ 21.5 µg/mL) | 32 (≈ 43 µg/mL) | 16 (≈ 21.5 µg/mL) | 64 (≈ 86 µg/mL) | 32 (≈ 43 µg/mL) | 125.83 | 112
5 | CC(C)C[C@H](NC(=O)[C@H](CC(C)C)NC(=O)[C@@H](NC(=O)[C@H](CCCCN)NC(=O)[C@H](CC(C)C)NC(=O)[C@H](CCCNC(=N)N)NC(=O)[C@H](CCCCN)NC(=O)[C@H](Cc1ccc(-c2ccccc2)cc1)NC(=O)[C@H](CC(C)C)NC(=O)CN)[C@@H](C)O)C(N)=O (H-GL[Bip]KRLKTLL-NH2) | 8 (≈ 10.1 µg/mL) | 8 (≈ 10.1 µg/mL) | 8 (≈ 10.1 µg/mL) | 8 (≈ 10.1 µg/mL) | 8 (≈ 10.1 µg/mL) | 8 (≈ 10.1 µg/mL) | 8 (≈ 10.1 µg/mL) | 8 (≈ 10.1 µg/mL) | 8 (≈ 10.1 µg/mL) | 8 (≈ 10.1 µg/mL) | 8 (≈ 10.1 µg/mL) | 8 (≈ 10.1 µg/mL) | 47.48 | 76.4
6 | CC(C)C[C@H](NC(=O)[C@H](CC(C)C)NC(=O)[C@H](Cc1ccc(O)cc1)NC(=O)[C@H](CCCCN)NC(=O)[C@H](CC(C)C)NC(=O)[C@H](CCCNC(=N)N)NC(=O)[C@H](CCCCN)NC(=O)[C@H](Cc1ccc2ccccc2c1)NC(=O)[C@H](CC(C)C)NC(=O)CN)C(N)=O (H-GL[2Nal]KRLKYLL-NH2) | 8 (≈ 10.4 µg/mL) | 8 (≈ 10.4 µg/mL) | 8 (≈ 10.4 µg/mL) | 8 (≈ 10.4 µg/mL) | 8 (≈ 10.4 µg/mL) | 8 (≈ 10.4 µg/mL) | 8 (≈ 10.4 µg/mL) | 4 (≈ 5.2 µg/mL) | 8 (≈ 10.4 µg/mL) | 8 (≈ 10.4 µg/mL) | 8 (≈ 10.4 µg/mL) | 8 (≈ 10.4 µg/mL) | 78.09 | 61.5
7 | CC(C)C[C@H](NC(=O)[C@H](CC(C)C)NC(=O)[C@@H](NC(=O)[C@H](CCCCN)NC(=O)[C@H](Cc1ccc2ccccc2c1)NC(=O)[C@H](CCCNC(=N)N)NC(=O)[C@H](CCCCN)NC(=O)[C@H](CC(C)C)NC(=O)[C@H](CC(C)C)NC(=O)CN)[C@@H](C)OP(=O)(O)O)C(N)=O (H-GLLKR[2Nal]K[pT]LL-NH2) | > 128 | > 128 | 128 (≈ 169 µg/mL) | > 128 | 128 (≈ 169 µg/mL) | 128 (≈ 169 µg/mL) | > 128 | 128 (≈ 169 µg/mL) | > 128 | 128 (≈ 169 µg/mL) | > 128 | 128 (≈ 169 µg/mL) | > 256 | > 128
8 | CC(C)C[C@H](NC(=O)[C@H](CC(C)C)NC(=O)[C@H](Cc1ccc(OP(=O)(O)O)cc1)NC(=O)[C@H](CCCCN)NC(=O)[C@H](CC(C)C)NC(=O)[C@H](CCCNC(=N)N)NC(=O)[C@H](CCCCN)NC(=O)[C@H](Cc1ccc2ccccc2c1)NC(=O)[C@H](CC(C)C)NC(=O)CN)C(N)=O (H-GL[2Nal]KRLK[pY]LL-NH2) | 8 (≈ 11 µg/mL) | 8 (≈ 11 µg/mL) | 8 (≈ 11 µg/mL) | 16 (≈ 22.1 µg/mL) | 8 (≈ 11 µg/mL) | 32 (≈ 44.1 µg/mL) | 8 (≈ 11 µg/mL) | 8 (≈ 11 µg/mL) | 8 (≈ 11 µg/mL) | 16 (≈ 22.1 µg/mL) | 8 (≈ 11 µg/mL) | 8 (≈ 11 µg/mL) | 164.57 | 128
9 | CC(C)C[C@H](NC(=O)[C@H](CC(C)C)NC(=O)[C@H](Cc1ccc(O)cc1)NC(=O)[C@H](CCCCN)NC(=O)[C@H](Cc1ccc(-c2ccccc2)cc1)NC(=O)[C@H](CCCNC(=N)N)NC(=O)[C@H](CCCCN)NC(=O)[C@H](CC(C)C)NC(=O)[C@H](CC(C)C)NC(=O)CN)C(N)=O (H-GLLKR[Bip]KYLL-NH2) | 8 (≈ 10.6 µg/mL) | 8 (≈ 10.6 µg/mL) | 8 (≈ 10.6 µg/mL) | 8 (≈ 10.6 µg/mL) | 8 (≈ 10.6 µg/mL) | 8 (≈ 10.6 µg/mL) | 8 (≈ 10.6 µg/mL) | 4 (≈ 5.3 µg/mL) | 8 (≈ 10.6 µg/mL) | 8 (≈ 10.6 µg/mL) | 8 (≈ 10.6 µg/mL) | 16 (≈ 21.2 µg/mL) | 99.53 | 82.3
10 | H-GLWKRLKYLL-NH2 | 8 | 8 | 8 | 8 | 8 | 16 | 8 | 4 | 8 | 8 | 8 | 8 | 182.72 | 115
11 | CC(C)C[C@H](NC(=O)[C@H](CC(C)C)NC(=O)[C@H](Cc1ccc(OP(=O)(O)O)cc1)NC(=O)[C@H](CCCCN)NC(=O)[C@H](Cc1c[nH]c2ccccc12)NC(=O)[C@H](CCCNC(=N)N)NC(=O)[C@H](CCCCN)NC(=O)[C@H](CC(C)C)NC(=O)[C@H](CC(C)C)NC(=O)CN)C(N)=O (H-GLLKRWK[pY]LL-NH2) | > 128 | > 128 | 32 (≈ 43.8 µg/mL) | 64 (≈ 87.6 µg/mL) | 64 (≈ 87.6 µg/mL) | 128 (≈ 175 µg/mL) | > 128 | 64 (≈ 87.6 µg/mL) | 64 (≈ 87.6 µg/mL) | 128 (≈ 175 µg/mL) | 128 (≈ 175 µg/mL) | 64 (≈ 87.6 µg/mL) | > 256 | > 128
12 | C[C@@H](O)[C@H]1C(=O)N2C(C(=O)O)=C(S[C@@H]3CN[C@H](C(=O)N(C)C)C3)[C@H](C)[C@H]12 [MEROPENEM] | 64 (≈ 24.5 µg/mL) | 128 (≈ 49.1 µg/mL) | < 1 | < 1 | < 1 | 8 (≈ 3.07 µg/mL) | < 1 | < 1 | < 1 | 1 (≈ 0.383 µg/mL) | 2 (≈ 0.767 µg/mL) | 2 (≈ 0.767 µg/mL) | – | –
13 | CC(C)C[C@H](NC(=O)[C@H](CC(C)C)NC(=O)[C@@H](NC(=O)[C@H](CCCCN)NC(=O)[C@H](CC(C)C)NC(=O)[C@H](CCCNC(=N)N)NC(=O)[C@H](CCCCN)NC(=O)[C@H](Cc1ccc2ccccc2c1)NC(=O)[C@H](CC(C)C)NC(=O)CN)[C@@H](C)OP(=O)(O)O)C(N)=O (H-GL[2Nal]KRLK[pT]LL-NH2) | 128 (≈ 169 µg/mL) | 128 (≈ 169 µg/mL) | 64 (≈ 84.3 µg/mL) | 32 (≈ 42.2 µg/mL) | 64 (≈ 84.3 µg/mL) | 64 (≈ 84.3 µg/mL) | 128 (≈ 169 µg/mL) | 32 (≈ 42.2 µg/mL) | 64 (≈ 84.3 µg/mL) | 32 (≈ 42.2 µg/mL) | 128 (≈ 169 µg/mL) | 64 (≈ 84.3 µg/mL) | > 256 | 131
14 | O=C(O)c1cn(C2CC2)c2cc(N3CCNCC3)c(F)cc2c1=O [CIPROFLOXACIN] | – | – | – | – | – | – | 16 (≈ 5.3 µg/mL) | 2 (≈ 0.663 µg/mL) | < 1 | 4 (≈ 1.33 µg/mL) | – | 16 (≈ 5.3 µg/mL) | – | –
15 | COc1cccc(OC)c1C(=O)N[C@@H]1C(=O)N2[C@@H]1SC(C)(C)[C@@H]2C(=O)O [METHICILLIN] | > 128 | > 128 | > 128 | > 128 | > 128 | > 128 | 8 (≈ 3.04 µg/mL) | < 1 | > 128 | > 128 | > 128 | > 128 | – | –
16 | H-GLLKRWKTLL-NH2 | 128 | 128 | 32 | 32 | 32 | 32 | > 128 | 8 | 64 | 8 | 64 | > 128 | > 256 | > 128
